Drawing on patent publication US10669272B2, “Substituted naphthyridinone compounds useful as T cell activators” (BRISTOL-MYERS SQUIBB COMPANY, priority 2018, dated 2020), this text covers IC50 and EC50 for 25 compounds.

In one test the target is T1, human DGKα (Homo sapiens, UniProt P23743).
T1 construct: TVMV protease cleavage site (C); Hexa-His (C); made in house; host or cells: Sf9 insect cells (baculovirus, Bac-to-Bac)
In words: DGKα LIPGLO assay (extruded liposome substrate), in vitro DGK inhibition. To be noted: read-out: DGKa LIPGLO IC50. The format is biochemical.

A further test concerns the target T2, human DGKζ (Homo sapiens, UniProt Q13574).
T2 construct: TVMV protease cleavage site (C); Hexa-His (C); made in house; host or cells: Sf9 insect cells (baculovirus, Bac-to-Bac)
Put plainly: DGKζ LIPGLO assay (extruded liposome substrate), in vitro DGK inhibition. To be noted: read-out: DGKz LIPGLO IC50. The format is biochemical.

In the next test the test system is Human venous whole blood. In words: Human whole blood IFN-γ assay.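 Also: blood from healthy donors exposed to compound for 1 h before stimulation with anti-CD3 and anti-CD28 at 1 µg/mL each, IFN-γ quantified in supernatant by AlphaLISA.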 The format is cell-based. To be noted: human whole blood, read-out: INFg Whole Blood Normalized Agonist EC50.
Setting [1] is: normalized to 3 μM reference compound with anti-CD3 plus anti-CD28 as 100% activation.
[2] abbreviates: anti-CD3 plus anti-CD28, 24 hours, 3 μM reference compound = 100% activation.
Setting [3] is: Homo sapiens, 24 h, normalized to 3 μM reference compound with anti-CD3 plus anti-CD28 as 100% activation.

Counter-ions that a name gives are not always drawn. Like-named read-outs stand apart in the source and are kept apart here.

T2 sequence (Q13574 with tags, fused parts or gaps isoform Q13574-4): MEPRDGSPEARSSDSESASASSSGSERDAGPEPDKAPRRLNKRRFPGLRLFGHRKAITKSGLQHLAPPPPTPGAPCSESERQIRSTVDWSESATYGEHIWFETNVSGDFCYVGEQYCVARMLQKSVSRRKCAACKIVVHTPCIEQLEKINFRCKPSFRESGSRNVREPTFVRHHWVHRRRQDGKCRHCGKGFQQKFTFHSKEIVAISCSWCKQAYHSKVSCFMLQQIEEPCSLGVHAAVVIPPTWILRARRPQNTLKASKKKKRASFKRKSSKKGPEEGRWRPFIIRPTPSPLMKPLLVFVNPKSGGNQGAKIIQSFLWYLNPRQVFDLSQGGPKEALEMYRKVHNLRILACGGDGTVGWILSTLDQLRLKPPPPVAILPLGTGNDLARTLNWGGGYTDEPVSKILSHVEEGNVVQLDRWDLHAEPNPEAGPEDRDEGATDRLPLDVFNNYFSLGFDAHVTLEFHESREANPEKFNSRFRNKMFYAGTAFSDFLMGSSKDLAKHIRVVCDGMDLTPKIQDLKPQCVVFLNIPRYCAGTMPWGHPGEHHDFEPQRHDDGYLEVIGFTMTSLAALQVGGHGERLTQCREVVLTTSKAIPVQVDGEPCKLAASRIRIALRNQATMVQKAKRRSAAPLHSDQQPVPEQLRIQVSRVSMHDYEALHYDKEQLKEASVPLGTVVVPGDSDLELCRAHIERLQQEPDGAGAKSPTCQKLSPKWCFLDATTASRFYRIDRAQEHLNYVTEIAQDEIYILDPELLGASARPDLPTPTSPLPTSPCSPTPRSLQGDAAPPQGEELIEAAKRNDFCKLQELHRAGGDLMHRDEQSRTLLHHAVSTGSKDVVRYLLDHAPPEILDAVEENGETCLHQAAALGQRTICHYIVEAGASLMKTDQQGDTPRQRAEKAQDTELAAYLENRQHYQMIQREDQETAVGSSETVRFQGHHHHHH
T1 sequence (P23743 with tags, fused parts or gaps): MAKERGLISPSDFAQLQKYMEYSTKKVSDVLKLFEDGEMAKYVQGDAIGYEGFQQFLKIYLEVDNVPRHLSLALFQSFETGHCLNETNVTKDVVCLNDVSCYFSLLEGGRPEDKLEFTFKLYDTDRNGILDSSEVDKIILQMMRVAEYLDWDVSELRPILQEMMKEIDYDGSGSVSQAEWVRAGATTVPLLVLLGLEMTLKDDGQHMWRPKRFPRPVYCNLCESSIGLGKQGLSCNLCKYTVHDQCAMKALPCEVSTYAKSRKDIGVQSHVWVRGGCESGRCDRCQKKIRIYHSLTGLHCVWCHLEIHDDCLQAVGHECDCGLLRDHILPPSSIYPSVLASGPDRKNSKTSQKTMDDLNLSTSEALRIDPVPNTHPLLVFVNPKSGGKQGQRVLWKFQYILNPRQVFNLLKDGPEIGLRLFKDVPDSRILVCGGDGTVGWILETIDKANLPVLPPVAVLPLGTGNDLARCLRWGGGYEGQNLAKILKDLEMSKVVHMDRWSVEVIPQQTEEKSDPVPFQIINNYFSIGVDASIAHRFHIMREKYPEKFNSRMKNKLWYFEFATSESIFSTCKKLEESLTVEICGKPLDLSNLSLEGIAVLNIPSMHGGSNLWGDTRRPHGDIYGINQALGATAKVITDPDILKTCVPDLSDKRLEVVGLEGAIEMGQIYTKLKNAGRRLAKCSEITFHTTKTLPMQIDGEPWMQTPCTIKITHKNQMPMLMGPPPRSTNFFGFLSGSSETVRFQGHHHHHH
Procedure for Human venous whole blood: Human Whole Blood IFN-γ Assay
Human venous whole blood (22.5 μL per well), obtained from healthy donors, was pre-treated with compounds for one hour at 37° C. in a humidified 95% air/5% CO2 incubator. The blood was stimulated with 2.5 μL anti-human CD3 and anti-CD28 mAb at a final concentration of 1 μg/mL each for 24 hours at 37° C. IFN-γ in the supernatants was measured using AlphLISA kit (Cat # AL217).

What is called IC50 is the concentration at which inhibition is half-maximal. What is called EC50 is the concentration giving half of the maximal effect. On to `Cc1ccc(C(c2ccc(C)c(Cl)c2)N2C[C@H](C)N(c3cc(=O)n(C)c4ccc(C#N)nc34)C[C@H]2C)nc1` (single isomer, unassigned) [Example 380], for which the 50% inhibitory concentration (IC50) is 3.1 µM on human DGKα (liposome (LIPGLO) assay) and 1.6 µM on human DGKζ (liposome (LIPGLO) assay). The EC50 in the test on Human venous whole blood (setting [1]) stood at 0.63 µM.
For `CC(c1c(F)cccc1F)N1CCN(c2c(C#N)c(=O)n(C)c3ccc(C#N)nc23)C[C@H]1C` (single isomer, unassigned) [Example 951], the figures for the IC50 on human DGKα (DGKα liposome (LIPGLO) assay) and at human DGKζ (DGKζ liposome (LIPGLO) assay) were 3.7 µM and 9.8 µM, respectively. Also, the EC50 in the test with Human venous whole blood (setting [2]) amounted to 20 µM.
As to `C[C@@H]1CN(c2cc(=O)n(C)c3ccc(C#N)nc23)[C@@H](C)CN1Cc1cccc2c1ccn2C` [Example 606], the IC50 is 5.2 µM on human DGKα (liposome (LIPGLO) assay) and 0.066 µM at human DGKζ (liposome (LIPGLO) assay). In addition, in the test with Human venous whole blood (setting [3]), the EC50 amounted to 1.1 µM.
The like results for `C[C@@H]1CN(Cc2c(F)cc(F)cc2F)[C@@H](CO)CN1c1cc(=O)n(C)c2ccc(C#N)nc12` [Example 1182] were, in that order, 34 µM, 1.2 µM and 20 µM.
Turning to `CC[C@@H]1CN(c2cc(=O)n(C)c3ccc(C#N)nc23)[C@@H](C)CN1C(C)c1ccc(OC(F)F)cc1` (stereo partly drawn) [Example 1344], the IC50 at human DGKα (liposome (LIPGLO) assay) stood at 0.0044 µM; on human DGKζ (liposome (LIPGLO) assay), 0.016 µM. The EC50 in the test with Human venous whole blood (setting [1]) was 0.051 µM.
For the compound `C[C@@H]1CN(c2c(F)c(=O)n(C)c3ccc(C#N)nc23)[C@@H](C)CN1C(c1ccc(F)cc1)c1c(F)cccc1F` (single isomer, unassigned) [Example 336], the figures for the 50% inhibitory concentration (IC50) on human DGKα (liposome (LIPGLO) assay) and on human DGKζ (liposome (LIPGLO) assay) were 0.74 µM and 0.23 µM, respectively. Moreover, the EC50 with Human venous whole blood (setting [1]) is 2 µM.
Consider `CC[C@@H]1CN(c2c(F)c(=O)n(C)c3ccc(C#N)nc23)CCN1C(c1ccc(Cl)cc1)c1ccc(Cl)cc1` [Example 178, (R)-8-(4-(bis(4-chlorophenyl)methyl)-3-ethylpiperazin-1-yl)-7-fluoro-5-methyl-6-oxo-5,6-dihydro-1,5-naphthyridine-2-carbonitrile], for which the IC50 on human DGKα (liposome (LIPGLO) assay) amounted to 0.61 µM; on human DGKζ (liposome (LIPGLO) assay) it was 0.39 µM. In addition, the EC50 in the test on Human venous whole blood (setting [3]) was found to be 0.58 µM.
For `C[C@H]1CN(C(c2ccc(F)cc2)c2ccc(F)cc2)[C@H](CN(C)C)CN1c1cc(=O)n(C)c2ccc(C#N)nc12` [Example 1169], in that order: 39 µM, 6.2 µM and 2.3 µM.
The like results for `Cc1ccc(C(c2ccc(C#N)cc2)N2C[C@H](C)N(c3cc(=O)n(C)c4ccc(C#N)nc34)C[C@H]2C)cc1` (single isomer, unassigned) [Example 310, TFA salt] were, in that order, 1.3 µM, 1.6 µM and 1.9 µM.
With `CC[C@@H]1CN(c2c(F)c(=O)n(C)c3ccc(C#N)nc23)[C@@H](C)CN1C(C)c1ccc(OC(F)(F)F)cc1` (single isomer, unassigned) [Example 1329], the half-maximal inhibitory concentration (IC50) on human DGKα (liposome (LIPGLO) assay) is 1.5 µM; on human DGKζ (liposome (LIPGLO) assay), 26 µM. In addition, in the test with Human venous whole blood (setting [1]), the EC50 is 3.6 µM.
Regarding `CC(c1ccc(OC(F)(F)F)cc1)N1C[C@H](C)N(c2cc(=O)n(C)c3ccc(C#N)nc23)C[C@H]1CN1CCN(C)CC1` (stereo partly drawn) [Example 1417], the IC50 on human DGKα (liposome (LIPGLO) assay) is 26 µM; on human DGKζ (liposome (LIPGLO) assay) it was 65 µM. Besides, the 50% effective concentration (EC50) with Human venous whole blood (setting [3]) turned out to be 11 µM.
In the case of `C[C@@H]1CN(c2c(C#N)c(=O)n(C)c3ccc(C#N)nc23)CCN1C(c1ccc(F)cc1)c1ccc(C#N)cn1` (single isomer, unassigned) [Example 908], the figures for the IC50 on human DGKα (DGKα liposome (LIPGLO) assay) and at human DGKζ (DGKζ liposome (LIPGLO) assay) were 0.77 µM and 3.9 µM, respectively. Moreover, the EC50 with Human venous whole blood (setting [2]) was 1.4 µM.
For `COCCOC[C@@H]1CN(c2cc(=O)n(C)c3ccc(C#N)nc23)[C@@H](C)CN1C(C)c1ccc(OC(F)(F)F)cc1` (single isomer, unassigned) [Example 1405], the IC50 at human DGKα (liposome (LIPGLO) assay) was 0.96 µM; on human DGKζ (liposome (LIPGLO) assay), 0.057 µM. In the test with Human venous whole blood (setting [3]), the EC50 stood at 0.48 µM.
For the compound `CC(c1ccccc1F)N1C[C@H](C)N(c2c(C#N)c(=O)n(C)c3ccc(C#N)nc23)C[C@H]1C` (single isomer, unassigned) [Example 798], the IC50 at human DGKα (DGKα liposome (LIPGLO) assay) is 9.8 µM; on human DGKζ (DGKζ liposome (LIPGLO) assay), more than 250 µM. Moreover, the concentration giving a half-maximal response (EC50) with Human venous whole blood (setting [2]) turned out to be 20 µM.
Take `CC(c1ccc(OC(F)(F)F)c(F)c1)N1C[C@H](C)N(c2cc(=O)n(C)c3ccc(C#N)nc23)C[C@H]1C` (single isomer, unassigned) [Example 1204]: the results for the IC50 at human DGKα (liposome (LIPGLO) assay) and at human DGKζ (liposome (LIPGLO) assay) were 0.12 µM and 0.47 µM, respectively. Also, the EC50 in the test on Human venous whole blood (setting [1]) is 0.54 µM.
As to `CC[C@@H]1CN(c2cc(=O)n(C)c3ccc(C#N)nc23)[C@@H](C)CN1C(c1ccc(F)cc1)c1ccnc(C)n1` (stereo partly drawn) [Example 419, 8-((2S,5R)-5-ethyl-4-((4-fluorophenyl)(2-methylpyrimidin-4-yl)methyl)-2-methylpiperazin-1-yl)-5-methyl-6-oxo-5,6-dihydro-1,5-naphthyridine-2-carbonitrile], the IC50 at human DGKα (liposome (LIPGLO) assay) was 0.95 µM; at human DGKζ (liposome (LIPGLO) assay), 0.34 µM. For the same compound, the EC50 in the test on Human venous whole blood (setting [1]) turned out to be 0.96 µM.
With `CC[C@@H]1CN(c2cc(=O)n(C)c3ccc(C#N)nc23)[C@@H](C)CN1C(c1ccc(F)cc1)c1nc(C2CC2)no1` (stereo partly drawn) [Example 1117], the IC50 on human DGKα (liposome (LIPGLO) assay) was 0.015 µM; at human DGKζ (liposome (LIPGLO) assay), 0.017 µM. Moreover, the 50% effective concentration (EC50) in the test on Human venous whole blood (setting [3]) came to 0.15 µM.
The like results for `C[C@@H]1CN(c2cc(=O)n(C)c3ccc(C#N)nc23)[C@@H](C)CN1Cc1cc(F)c(F)c(F)c1` [Example 1235] were, in that order, 1.1 µM, 0.63 µM and 3.3 µM.
For `COCC(F)(F)C(c1ccc(F)cc1)N1C[C@H](C)N(c2cc(=O)n(C)c3ccc(C#N)nc23)C[C@H]1C` (single isomer, unassigned) [Example 1312], in that order: 0.1 µM, 0.15 µM and 0.33 µM.
For the compound `C[C@@H]1CN(c2c(C#N)c(=O)n(C)c3ccc(C#N)nc23)CCN1C(c1ccc(F)cc1)c1ccc(C(F)(F)F)cc1` (single isomer, unassigned) [Example 914], the IC50 at human DGKα (DGKα liposome (LIPGLO) assay) was determined as 1.3 µM; at human DGKζ (DGKζ liposome (LIPGLO) assay) it was 1.5 µM. Further, the EC50 in the test with Human venous whole blood (setting [2]) was determined as 1.9 µM.
Consider `CC[C@H]1CN(C(c2cccc(F)c2)c2ccc(F)cn2)[C@H](CC)CN1c1cc(=O)n(C)c2ccc(C#N)nc12` (single isomer, unassigned) [Example 1041], for which the IC50 on human DGKα (liposome (LIPGLO) assay) is 0.036 µM; on human DGKζ (liposome (LIPGLO) assay), 0.043 µM. In addition, the EC50 in the test with Human venous whole blood (setting [3]) came to 0.23 µM.
For `CC(c1ccc(OC(F)(F)F)cc1)N1C[C@H](C)N(c2cc(=O)n(C)c3ccc(C#N)nc23)C[C@H]1C` (single isomer, unassigned) [Example 436], the figures for the IC50 on human DGKα (liposome (LIPGLO) assay) and at human DGKζ (liposome (LIPGLO) assay) were 0.065 µM and 0.81 µM, respectively. The EC50 with Human venous whole blood (setting [1]) is 0.44 µM.
`COCc1cc(F)ccc1C(C)N1C[C@H](C)N(c2cc(=O)n(C)c3ccc(C#N)nc23)C[C@H]1C` (single isomer, unassigned) [Example 1315]: the values for the IC50 on human DGKα (liposome (LIPGLO) assay) and on human DGKζ (liposome (LIPGLO) assay) were 79 µM and 1.4 µM, respectively. In the test on Human venous whole blood (setting [3]), the EC50 was 20 µM.
As for `CC[C@@H]1CN(c2cc(=O)n(C)c3ccc(C#N)nc23)[C@@H](C)CN1C(C)c1ccc(OC(C)C)cc1` (single isomer, unassigned) [Example 1349], the IC50 at human DGKα (liposome (LIPGLO) assay) came to 5.4 µM; on human DGKζ (liposome (LIPGLO) assay), 2.2 µM. Moreover, in the test with Human venous whole blood (setting [1]), the EC50 worked out at 0.58 µM.
In the case of `C[C@@H]1CN(c2cc(=O)n(C)c3ccc(C#N)nc23)[C@@H](C)CN1C(c1ccc(F)cc1)c1cccc(S(C)(=O)=O)c1` (single isomer, unassigned) [Example 689], the concentration for half-maximal inhibition (IC50) on human DGKα (liposome (LIPGLO) assay) amounted to 7.6 µM; on human DGKζ (liposome (LIPGLO) assay), 3 µM. Moreover, the 50% effective concentration (EC50) with Human venous whole blood (setting [1]) was 1.5 µM.
